According to US20230227437A1, “IMMUNOMODULATOR” (priority 2020, published 2023):

Legend:
[1] = Drug metabolism properties (pharmacokinetics) in rats; format: in vivo; details: plasma; rat, intravenous injection/oral gavage; read-out: Oral bioavailability F % (rat)
Procedure: (§1) In order to investigate the drug metabolism property of the compounds provided herein in rats, a compound solution was given to 3 rats by intravenous injection/oral gavage at corresponding doses. After 5 min, 15 min, 30 min, 1 h, 2 h, 4 h, 8 h and 24 h administration, anticoagulated whole blood was collected from rats, and plasma was separated.
(§2) Plasma concentrations of compounds were determined by standard curve calibration method using LC-MS. Using Winnolin 5.2 software, plasma concentration-time data were fitted to pharmacokinetic parameters, including elimination half-life (T1/2), area under the plasma pharmacokinetic curve at the sampling endpoint (AUClast), peak concentration (Cmax), apparent volume of distribution (Vz), total clearance ration (Cl), and absolute bioavailability (F %).

[2] = Drug metabolism properties (pharmacokinetics) in dogs; format: in vivo; details: both sexes, plasma; dog, intravenous injection/oral gavage; read-out: Oral bioavailability F % (dog)
Procedure: as §1, with “in dogs,” for “in rats,”, “to 2 groups of dogs (4 dogs (2 males+2 females) for each group)” for “to 3 rats”, “After […]” for “After 5”, “8 h, 12 h, 24” for “8”, “and 36” for “and 24”, “from dogs,” for “from rats,”
as §2

[3] = target: T1, hIL-17A (Homo sapiens, UniProt Q16552); assay: Inhibition of hIL-17A-induced chemokine GROα/CXCL1 production in HT-29 cell; format: cell-based
T1 construct: purchased R&D 317-ILB
T1 sequence (Q16552 20-155 limits assumed): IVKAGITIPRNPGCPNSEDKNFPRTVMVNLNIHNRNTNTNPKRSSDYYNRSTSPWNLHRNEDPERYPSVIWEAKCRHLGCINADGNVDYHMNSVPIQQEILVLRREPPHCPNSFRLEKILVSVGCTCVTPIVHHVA
Procedure: Human colorectal adenocarcinoma cell HT-29 was inoculated to a 96-well plate (5×10^4 for per well), and incubated at 37° C. on an incubator overnight. A mixture of 30 ng/mL hIL-17A protein (R&D, #317-ILB) with gradient concentrations of IL-17A small molecule inhibitors or with 0.3 μg/mL positive control IL-17A antibody (R&D, #AF-317-NA) was incubated for 1 h at 37° C., and added into the 96-well plate to incubated with HT-29 at 37° C. for 48 h. A level of GROα in a cell culture supernatant was then detected using an ELISA kit for GROα (Cisbio, #62HCXC1peg).
Inhibitory effect of the compound prepared in Examples on hIL-17A-induced chemokine GROα/CXCL1 production in HT-29 cell was tested according to the methods of Experimental Examples 1 and 2. […] “-” indicated not tested. According to the results, the compounds provided herein have good human IL-17A inhibitory activity and can be effectively used in the treatment of diseases associated with abnormal hIL-17A activity.

[4] = Drug metabolism properties (pharmacokinetics) in mice; format: in vivo; details: mouse, plasma, intravenous injection/oral gavage, read-out: Oral bioavailability F % (mice)
Procedure: In order to investigate the drug metabolism property of the compounds provided herein in mice, a compound solution was given to 6 mice by intravenous injection/oral gavage at corresponding doses. Mice were divided into groups A and B for each administration, where anticoagulated whole blood was collected from group A at 5 min, 30 min, 2 h and 8 h after drug administration; and anticoagulated whole blood was collected from group B at 15 min, 1 h, 4 h and 24 h after drug administration. plasma was separated.
as §2

[5] = target: T2, human IL-17A (hIL-17A) (Homo sapiens, UniProt Q16552); assay: IL-17A enzyme-linked immunosorbent assay (competitive ELISA, receptor-ligand binding)
T2 construct: purchased Sino Biological Inc. 12047-H07B
T2 sequence (Q16552 24-155): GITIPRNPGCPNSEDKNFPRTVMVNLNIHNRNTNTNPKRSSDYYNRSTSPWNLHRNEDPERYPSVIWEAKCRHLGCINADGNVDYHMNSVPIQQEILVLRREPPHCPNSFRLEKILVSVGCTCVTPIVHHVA
Procedure: The inhibition of receptor-ligand binding by human IL-17A (hIL-17A) inhibitors was detected by competitive ELISA. A 96-well plate was inoculated 0.2 μg/ml IL-17 (Sino Biological Inc. Cat #12047-H07B) for incubation at 37° C. for 30 min, 100 μL for per well. The 96-well plate was washed four times with phosphate buffered saline (PBS) containing Tween-20 (PBST, 0.05% Tween-20), 200 μL for per well each time. 200 μL of 5% skim milk were added into the 96-well plate for incubation on a shaker at 25° C. for 30 min. The 96-well plate was washed four times with PBST (0.05% Tween-20), and added with 89 μL of PBST and 1 μL of a compound to be measured (100×), in which a concentration the compound to be measured (100×) was 0.003 μM-30 μM. The mixture was mixed evenly and incubated at 25° C. for 10 min. The mixture was added with 10 μL of 16 nM IL-17R, followed by incubation at 25° C. for 30 min. After washing the 96-well plate 4 times, 100 μL of anti-Fc tag horseradish peroxidase (HRP) coupled antibody were added for incubation on a shaker at 25° C. for 30 min. After washing the 96-well plate 4 times, 100 μL of 3,3′,5,5′-tetramethylbenzidine (TMB) substrate solution were added to the 96-well plate for incubation away from light at 25° C. After addition of 20% HCl, an absorbance was measure by a microplate reader at 450 nm.
The compounds prepared according to the above method were assayed for human IL-17A inhibitory activity.

[6] = target: T3, hIL-17A protein (Homo sapiens, UniProt Q16552); assay: Binding to hIL-17A protein through surface plasmon resonance (SPR, Biacore 8K); details: for ka / kd: SPR; for binding to hIL-17A (SPR, in words): compared with the positive compound
T3 sequence (Q16552 24-155): T2 sequence (Q16552 24-155)
Procedure: The binding of the compounds provided herein to the hIL-17A protein was tested using SPR, and analyzed using a Biacore 8K system. A positive compound was the compound of Example 32 in WO2020/127685A1.

[7] = tested on: imiquimod cream-induced psoriasis model; assay: Pharmacodynamic test of imiquimod cream-induced psoriasis model in mice; format: in vivo, C57BL/6N mice
Procedure: The backs of […] female C57BL/6N mice were shaved approximately 2.5×4 cm, and imiquimod (IMQ, Imiquimod) cream was applied continuously from day 1 to day 5 to establish a psoriasis model. The compound 26 provided herein (3, 10, 30 mg/kg) was given once daily by gavage to the mice, an IL-17A antibody solution (Ab, 2 mg/kg) was given by intraperitoneal injection every other day to the mice, or a dexamethasone solution (10 mg/kg) was given once daily by intraperitoneal injection to the mice. […] A skin thickness of mice was measured on the first day and fifth day to examine IMQ-induced skin thickening (FIG. 3B).
The skin of each group of mice was collected on the fifth day to detect IL6 mRNA levels by RT-qPCR (FIG. 3C). […] The plasma of mice in each group was collected on the fifth day to determine the level of IL-6 protein (FIG. 3D).

[8] = target: T4, hIL-17A/RA (Homo sapiens, UniProt Q16552); assay: Reversibility of binding by jump dilution ELISA (hIL-17A/hIL-17RA); details: for maintenance of binding to and inhibition of hIL-17A protein (jump dilution, in words): compared with the positive compound
T4 construct: biotin label (inferred from streptavidin-HRP detection)
T4 sequence (Q16552 24-155): T2 sequence (Q16552 24-155)
Procedure: The reversibility of the binding of the compounds in Examples to hIL-17A and the binding time of the compound-protein complex were qualitatively and quantitatively analyzed by jump dilution assay. The positive compound was the compound of Example 32 in WO2020/127685 A1. 7 nM hIL-17RA were inoculated to a 96-well plate (100 μL for per well), and incubated at 37° C. for 30 min. A blank group was 100 μL of coating buffer solution. After […] incubation at 4° C., the 96-well plate was washed with PBST (0.05% Tween-20) 4 times, 200 μL for per well each time. The 96-well plate was added with 200 μL 3% BSA (PBST diluted) and closed on a shaker at 37° C. for 30 min. […] The configured hIL7A was mixed with an equal volume of compound in a 200 ul centrifuge tube to obtain a protein-compound mixture. The protein-compound mixture was subjected to pre-incubation at room temperature for 15 min. The protein-compound mixture, positive control group and negative control group were diluted 200×. After closing, the 96-well plate was washed 4 times, and added with dilution 100 μL for per well to incubate at 25° C. for 28, 24, 5, 2 and 0 h. After washing the plate 4 times, 100 μL of Streptavidin-HRP coupled antibody diluted with 1% BSA was added and then incubated for 30 min on a shaker at 25° C. After washing the plate 4 times, 100 μL of TMB substrate solution were added, and incubated away from light for 5-15 min at 25° C. (depending on the color of the reaction). After addition of 20% HCl, an absorbance was measure by a microplate reader at 450 nm.

Row | Structure (SMILES) | bioavailability [1] [%] | bioavailability [2] [%] | IC50 [3] [nM] | bioavailability [4] [%] | IC50 [5] [nM] | Kd [6] [nM] | ka [6] [M⁻¹ s⁻¹] | kd [6] [s⁻¹] | binding to hIL-17A (SPR, in words) [6] | skin pathological injury, HE staining ([7]; 30 mg/kg, fifth day, FIGS. 4A-4D) | IMQ-induced skin inflammation, AUC of PASI scoring ([7]; 3, 10, 30 mg/kg once daily by gavage, FIG. 3A) | skin IL6 mRNA levels by RT-qPCR ([7]; fifth day, FIG. 3C) | IL-6 protein level in plasma ([7]; fifth day, FIG. 3D) | IMQ-induced skin thickening ([7]; skin thickness first day and fifth day, FIG. 3B) | maintenance of binding to and inhibition of hIL-17A protein (jump dilution, in words) [8] | 50% enzyme activity retention time, Value on hIL-17A/RA (5X cpds) ([8]; jump dilution, 5X cpds) [h] | 50% enzyme activity retention time, Value on hIL-17A/RA (10X cpds) ([8]; jump dilution) [h]
1 | Cc1n[nH]c(C)c1-c1ccc(NC(=O)[C@@H](NC(=O)c2ccnn2C(C)C)C2c3ccc(F)cc3OCC23CC3)cn1 (stereo partly shown) [Compound 18] | 18 | 41 | 332 | 55 | 164 |  |  |  |  |  |  |  |  |  |  |  | 
2 | Cc1nonc1C(=O)N[C@H](C(=O)Nc1ccc(-c2c(C)n[nH]c2C)cc1)C1c2ccc(F)cc2OCC12CC2 (stereo partly shown) [Compound 24] | 56 | 27 | 30 | 51 | 53 | 0.00388 | 12400 | 4.8e-08 | strong binding to hIL-17A and were much stronger than the positive compound |  |  |  |  |  |  |  | 
3 | CCc1nonc1C(=O)N[C@H](C(=O)Nc1ccc(-c2c(C)n[nH]c2C)nc1)C1c2ccc(F)cc2OCC12CC2 (stereo partly shown) [Compound 26] | 16 |  | 267 | 54 | 70 |  | 21300 | 1.98e-08 | strong binding to hIL-17A and were much stronger than the positive compound | effective in inhibiting IMQ-induced skin inflammatory cell infiltration and damage | attenuated the level of IMQ-induced skin inflammation with effects similar to those of the IL-17A antibody | dose-dependent reversion | inhibited in a dose-dependent manner | reversed the skin thickening caused by IMQ to varying degrees | able to maintain binding to and inhibit the activity of hIL-17A protein for a long time |  | 
4 | CCc1nonc1C(=O)N[C@H](C(=O)Nc1ccc(-c2c(C)n[nH]c2C)cc1)C1c2cc(F)c(F)cc2OCC12CC2 (stereo partly shown) [Compound 43] | 36 | 18 | 57 | 49 | 55 | 0.00132 | 14200 | 1.87e-08 | strong binding to hIL-17A and were much stronger than the positive compound |  |  |  |  |  | able to maintain binding to and inhibit the activity of hIL-17A protein for a long time | >28 | >28
5 | Cc1n[nH]c(C)c1-c1ncc(NC(=O)[C@@H](NC(=O)c2ccnn2C(C)C)C2c3cc(F)c(F)cc3OCC23CC3)cc1F (stereo partly shown) [Compound 47] |  |  | 172 |  | 88 | 0.00169 | 20400 | 3.44e-08 | strong binding to hIL-17A and were much stronger than the positive compound |  |  |  |  |  | able to maintain binding to and inhibit the activity of hIL-17A protein for a long time |  | >28
6 | Cc1n[nH]c(C)c1-c1ccc(NC(=O)[C@@H](NC(=O)c2nonc2C2CC2)C2c3cc(F)c(F)cc3OCC23CC3)cc1 (stereo partly shown) [Compound 49] | 17 | 20 | 146 | 37 | 146 |  |  |  |  |  |  |  |  |  |  |  | 
7 | CCc1nonc1C(=O)N[C@H](C(=O)Nc1ccc(-c2c(C)n[nH]c2C)cc1)C1c2ccc(F)c(F)c2OCC12CC2 (stereo partly shown) [Compound 58] | 28 | 16 | 109 | 26 | 54 |  |  |  |  |  |  |  |  |  |  |  | 
8 | Cc1n[nH]c(C)c1-c1ccc(NC(=O)[C@@H](NC(=O)OC2CC2)C2c3cc(F)c(F)cc3OCC23CC3)cc1 (stereo partly shown) [Compound 106] |  |  | 119 |  | 66 |  |  |  |  |  |  |  |  |  |  |  | 
9 | COC(=O)N[C@H](C(=O)Nc1ccc(-c2c(C)n[nH]c2C)cc1)C1c2cc(F)c(F)cc2OCC12CC2 (stereo partly shown) [Compound 107] |  |  | 383 |  | 51 |  |  |  |  |  |  |  |  |  |  |  | 
